Assay: in vitro
Conditions: human, hela cells, % viability

Point of comparison: `CC(C)C(C(=O)Nc1ccc(S(=O)(=O)N2CCOCC2)cc1)N1C(=O)c2ccccc2C1=O` (stereo not shown) [CBK265607], viability at 28.5 h, 10 µM 97.6%. Against it:
- c1ccc(N2CCN(CC3CN(c4ccccc4)c4ccccc4O3)CC2)cc1 (stereo not shown) [CBK066876] — lower, 86%
- CC(=O)Nc1ccc(Nc2cc(-c3ccc(Cl)cc3)ncn2)cc1 [CBK090720] — lower, 93.6%
- O=[N+]([O-])c1cccc(S(=O)(=O)Nc2ccc(C(O)(C(F)(F)F)C(F)(F)F)cc2)c1 [CBK062093] — higher, 102%
- Cc1nc(C)c(C(=O)N2CCc3[nH]c4ccccc4c3C2)o1 [CBK281873] — higher, 110%
- COCCN1C(=O)C2(CC(=O)N(CC(=O)N(C)C)C2=O)c2cc(F)ccc21 (stereo not shown) [CBK075428] — higher, 104%
- COc1ccc(C2N(CCC(=O)O)CCOC23CCN(C(=O)c2ccc4ccccc4c2)CC3)cc1 (stereo not shown) [CBK115960] — higher, 102%
- Cc1ccc2nc(C(=O)O)cc(C(=O)O)c2c1 [CBK261174] — lower, 91.6%
- Cc1cc(C(=O)CSc2nnc(N3CCCC3)n2C2CC2)c(C)n1C [CBK306051] — lower, 65.1%
- O=C(Nc1ccc(N2CCN(C(=O)c3ccco3)CC2)cc1)c1cccnc1 [CBK270034] — higher, 102%
- COc1ccc([C@@]23CC[C@@H](N)C[C@@H]2N(C(C)(C)C)CC3)cc1OC [CBK067673] — higher, 114%
- CC(C)C1CC(CCNCc2ccc(N(C)C)cc2)(c2ccccc2)CCO1 (stereo not shown) [CBK266210] — higher, 98.9%
- Cn1c(=O)c2c(nc(NCCOCCO)n2C)n(C)c1=O [CBK288164] — higher, 98.2%
- CC1Oc2ccc(S(=O)(=O)Nc3ccc(CCC(=O)O)cc3)cc2NC1=O (stereo not shown) [CBK299769] — lower, 92.3%
- O=C1c2ccccc2CN1c1ccc(Cl)cc1Cl [CBK109908] — lower, 95%
- Cc1cccc(C)c1NC(=O)Cn1c(SCC(N)=O)nc2ccccc21 [CBK266684] — higher, 106%
- Nn1c(SCc2cc(=O)[nH]c3ccccc23)nnc1C(O)c1ccccc1 (stereo not shown) [CBK268405] — higher, 99.2%
- CCCNC(=O)Cn1ncc2c3sc(C)cc3n(CC)c2c1=O [CBK284171] — lower, 85.8%
- CC(C)Nc1nc2ccccc2nc1SCCN(C)C [CBK103672] — higher, 115%
- O=C(O)/C(O)=C/C(=O)c1ccc(F)cc1 [CBK261844] — lower, 89.4%
- O=C(NCC(c1cccnc1)N1CCOCC1)c1cnc(-c2ccc(Cl)cc2)c(-c2ccco2)c1 (stereo not shown) [CBK037554] — higher, 100%
- CCn1cc(CN2CCC(Oc3cc(C)ccc3F)(C(=O)O)CC2)cn1 [CBK306644] — lower, 96.1%
- CNc1nc(Cn2ncc(N3CCCN(C)CC3)cc2=O)cs1 [CBK307446] — lower, 92.8%
- c1ccc2nc(N3CCCC3)c(Sc3nc[nH]n3)nc2c1 [CBK115265] — lower, 90.9%
- COc1cccc(-c2coc3cc4oc(=O)c(CC(=O)O)c(C)c4cc23)c1 [CBK269520] — lower, 86.6%
- COCCN1CC(CNC(=O)c2ccc(N3CCCC3)c(Cl)c2)CC1=O (stereo not shown) [CBK307680] — lower, 84%
- CNCCCC1(c2ccccc2)SC(C)(C)c2ccccc21 (stereo not shown) [CBK015933C] — lower, 90.6%
- CN1CCC(C(=O)N2CCN(CCc3ccccc3)CC2)CC1 [CBK200216] — higher, 103%
- CCc1nc2ccc(C(=O)N(C)CCN(C)C)cn2c1N(C)Cc1nccs1 [CBK145474] — lower, 96.8%
- O=C(c1cccnc1)C1CCN(C(=O)Cc2ccc(Cl)cc2)CC1 [CBK283813] — lower, 80.4%
- CCOc1cc(NC2CCN(C(=O)C3CCCC3)C2)ncn1 (stereo not shown) [CBK304137] — higher, 106%
- CC(C)(C)c1nnc(NC(=O)c2ccc(F)cc2)s1 [CBK086855] — lower, 89%
- COc1ccccc1NC(=O)c1sc2nc(N3CCOCC3)c3c(c2c1N)CCCC3 [CBK269247] — higher, 103%
- O=C(Nc1ccc2c(c1)OCCO2)c1cc(S(=O)(=O)N2CCCCC2)c(Cl)cc1Cl [CBK265790] — lower, 90%
- O=C(c1csnn1)N1CCN(CCc2ccccc2)CC1 [CBK200228] — lower, 96.6%
- O=c1c2ccccc2nc2n1CCN(Cc1cccs1)CC2 [CBK284815] — lower, 92.3%
- CCn1ncc(CN2CCN(C(=O)c3nn(C)cc3C(=O)O)CC2)c1C [CBK286870] — lower, 89.3%
- CC(CSSCC(C)C(=O)O)C(=O)O (stereo not shown) [CBK260940] — lower, 96.7%
- Cc1nc(-c2ccccc2)sc1C(=O)C1=C(O)C(=O)N(CCCN2CCOCC2)C1c1ccco1 (stereo not shown) [CBK266476] — higher, 111%
- NNC(=O)CN(CCc1ccccc1)S(=O)(=O)c1ccc(Cl)cc1 [CBK263754] — lower, 86.2%
- CCCC(C(=O)O)N1C(=O)C(=Cc2ccc(-c3ccc(C(=O)OCC)cc3)o2)SC1=S (stereo not shown) [CBK296983] — lower, 80.6%
- O=C(O)CC1(CNC(=O)Cn2nc(-c3ccccc3)ccc2=O)CCCCC1 [CBK286866] — lower, 84.1%
- CC1(C)CC(NC(=O)Cn2ccc3ccccc32)CCO1 (stereo not shown) [CBK304347] — higher, 98%
- Cc1ccc(Oc2ccc(C(=O)NCC(=O)O)cc2)cc1C [CBK286570] — lower, 84.5%
- CC(C)NC(=O)NC(=O)C1CCN(CCCc2ccc(Cl)c(Cl)c2)CC1 [CBK034947] — lower, 89.8%
- O=C(Nc1c(F)cc(F)cc1OC1CCNCC1)c1ccccn1 [CBK050274T] — lower, 94.8%
- CC(=O)Nc1ccc(CNc2nnc(C3CCCCC3)o2)cc1 [CBK306427] — higher, 105%
- Cn1c(SCC(=O)NCCCN2CCOCC2)nc2ccccc2c1=O [CBK287607] — higher, 109%
- COc1cc(OC)cc(C(=O)N2CCC3(CC2)CC(=O)c2cc(C)c(C)cc2O3)c1 [CBK164201] — lower, 83.3%
- Clc1cccc(-c2nc(NCCCN3CCOCC3)c3ccccc3n2)c1 [CBK267309] — lower, 76%
- CCOc1c(OC)cc(C#N)cc1C(=O)O [CBK269925] — lower, 87.3%
- O=C(Cc1ccc(-c2ccccc2)cc1)N1CCC2(CC1)Nc1ccccc1S(=O)(=O)N2 [CBK286189] — lower, 79.2%
- CCN1C(=O)CC2(C1=O)C(=O)N(CCCOc1ccc(Cl)cc1)c1ccc(C)cc12 (stereo not shown) [CBK075648] — higher, 109%
- COc1cccc(CNC(=O)CCc2nc3ccccc3[nH]2)c1 [CBK288003] — higher, 115%
- Cc1ccc(C)c(C(=O)C2=C(O)C(=O)N(CCCN3CCOCC3)C2c2cccc([N+](=O)[O-])c2)c1 (stereo not shown) [CBK265503] — lower, 86.2%
- O=C(Cc1cccc(F)c1)N1C2CCC1CC(O)(c1ccco1)C2 (stereo not shown) [CBK284138] — lower, 95.3%
- CN(C)CCN1C(=O)C(O)=C(C(=O)c2ccc(S(=O)(=O)N3CCOCC3)cc2)C1c1ccc(F)cc1 (stereo not shown) [CBK264683] — higher, 104%
- Nc1cc2ccccc2c(-c2ccc(OC(F)(F)F)cc2)n1 [CBK085725] — higher, 99.4%
- Nc1cccc(Sc2ncccn2)c1 [CBK085844] — lower, 93.4%
- COc1cccc2[nH]c(C(=O)N3CCOC(c4cccc(-c5c(F)cccc5F)n4)C3)cc12 (stereo not shown) [CBK285948] — higher, 110%
- Cc1ccccc1CNCCNCCO [CBK278293C] — higher, 98%
- CC(Oc1ccc(Cl)cc1Cl)C(=O)NC(=S)Nc1ccc2c(c1)C(=O)N(C)C2=O (stereo not shown) [CBK267356] — lower, 93.9%
- Cc1sc2c(C3CCN(C(=O)C4CC4)CC3)nc(C)n2c1C [CBK285298] — higher, 101%
- CN1CCN(CCC(=O)N/N=C/c2ccc(O)cc2O)CC1 [CBK262849] — lower, 94.2%
